Experimental data from patent US8598114B2, “Antimicrobial compounds” (priority 2007, dated 2013).
Where “and” joins values, the source holds several entries; their conditions need not be identical. Equal values may be shown once.

Legend:
[1] = test system: Candida (Issatchenkia) krusei; test: MIC, CLSI microbroth dilution (yeasts); format: cell-based; design: unit not given beside the values
Experimental: (§1) M27-A2 Vol. 22 No. 15 Reference Method for Broth Dilution Antifungal Susceptibility Testing of Yeasts; Approved Standard-Second Edition.
(§2) Yeast and filamentous fungal MIC were performed in MOPS buffered RPMI 1640 medium (MOPS buffer obtained from Sigma Aldrich Ltd., RPMI 1640 obtained from Invitrogen Ltd, Paisley, Scotland). The yeast inocula were in the range 7.5×10^2-4×10^3 CFU/mL and the filamentous fungi approximately 8×10^3-1×10^5CFU/mL

[2] = test system: Candida albicans; test: MIC, CLSI microbroth dilution (yeasts); format: cell-based; design: unit not given beside the values
Experimental: as §1, §2

[3] = test system: Candida parapsilosis; test: MIC, CLSI microbroth dilution (yeasts); format: cell-based; design: unit not given beside the values
Experimental: as §1, §2

[4] = test system: Candida tropicalis; test: MIC, CLSI microbroth dilution (yeasts); format: cell-based; design: unit not given beside the values; settings: Candida tropicalis ATCC750 - reference strain
Experimental: as §1, §2

[5] = test system: Cryptococcus neoformans; test: MIC, CLSI microbroth dilution (yeasts); format: cell-based; design: unit not given beside the values; settings: Cryptococcus neoformans - G.R. Micro collection
Experimental: as §1, §2

[6] = test system: Aspergillus niger; test: MIC, CLSI microbroth dilution (filamentous fungi); format: cell-based; design: unit not given beside the values; settings: Aspergillus niger - G.R. Micro collection
Experimental: (§3) M38-A Vol. 22 No. 16 Reference Method for Broth Dilution Antifungal Susceptibility Testing of Filamentous Fungi; Approved Standard.
as §2

[7] = test system: Trichophyton interdigitale; test: MIC, CLSI microbroth dilution (filamentous fungi); format: cell-based; design: unit not given beside the values; settings: Trichophyton interdigitale - G.R. Micro collection
Experimental: as §3, §2

[8] = test system: Trichophyton mentagrophytes; test: MIC, CLSI microbroth dilution (filamentous fungi); format: cell-based; design: unit not given beside the values; settings: Trichophyton mentagrophytes - G.R. Micro collection
Experimental: as §3, §2

[9] = test system: Microsporum canis; test: MIC, CLSI microbroth dilution (filamentous fungi); format: cell-based; settings: Microsporum canis - G.R. Micro collection
Experimental: as §3, §2

[10] = test system: Acinetobacter baumanii; test: MIC, CLSI microbroth dilution (aerobic bacteria); format: cell-based; settings: Acinetobacter baumanii - antibiotic-susceptible clinical isolate
Description: (§4) Cation-adjusted Mueller-Hinton broth (Oxoid Ltd., Basingstoke, UK and Trek Diagnostic Systems Ltd., East Grinstead, UK) (supplemented with 5% laked horse blood for Streptococcus spp., Corynebacterium jeikeium and Listeria monocytogenes) was used for aerobic bacteria, with an initial inoculum of approximately 10^5 colony-forming units (CFU)/mL.

[11] = test system: Corynebacterium jeikeium; test: MIC, CLSI microbroth dilution (aerobic bacteria); format: cell-based
Description: as §4

[12] = test system: Enterococcus faecium; test: MIC, CLSI microbroth dilution (aerobic bacteria); format: cell-based
Description: as §4

[13] = test system: Enterococcus gallinarum; test: MIC, CLSI microbroth dilution (aerobic bacteria); format: cell-based; settings: Enterococcus gallinarum vancomycin-resistant (VanC) clinical isolate
Description: as §4

[14] = test system: Staphylococcus haemolyticus; test: MIC, CLSI microbroth dilution (aerobic bacteria); format: cell-based; settings: Staphylococcus haemolyticus - antibiotic susceptible clinical isolate
Description: as §4

[15] = test system: Staphylococcus aureus; test: MIC, CLSI microbroth dilution (aerobic bacteria); format: cell-based; design: unit not given here
Description: as §4
To evaluate whether freezing affected the activity of the peptides some MIC determinations were repeated using plates containing freshly-prepared Mueller-Hinton broth.

[16] = test system: Clostridium perfringens; format: cell-based; settings: Clostridium perfringens - antibiotic-susceptible clinical isolate
[17] = test system: Bacteroides fragilis; test: MIC, CLSI microbroth dilution (anaerobic bacteria); format: cell-based; design: unit not given here; settings: Bacteroides fragilis - ATCC 25285, SBB (Table 2)
[18] = test system: trypsin; test: in vitro; format: in vitro ADME; settings: pH 8.6
Experimental: Measurements and Calculation of Peptide Half-Life
Each peptide was dissolved in a 0.1 M NH4HCO3 buffer (pH 6.5) to yield a final peptide concentration of 1 mg/ml. A trypsin solution was prepared by dissolving 1 mg of trypsin in 50 ml 0.1 M NH4HCO3 buffer (pH 8.2). For the stability determination, 250 μl freshly made trypsin solution and 250 μl peptide solution were incubated in 2 ml of 0.1 M NH4HCO3 buffer (pH 8.6) at 37° C. on a rocking table. Aliquots of 0.5 ml were sampled at different time intervals, diluted with 0.5 ml water:acetonitrile (60:40 v/v) containing 1% TFA and analysed by RP-HPLC as described above. Samples without trypsin addition taken at 0 h and after 20 h at 37° C. were used as negative controls. Integration of the peak area at 254 nm for samples taken during the first 5 hours of the assay was used to generate the τ1/2.

Q: For `N=C(N)NCCCC(N)C(=O)NC(Cc1ccc(-c2ccc3ccccc3c2)cc1)C(=O)NC(CCCNC(=N)N)C(=O)NCCc1ccccc1` (stereo not shown) [Compound 1], which MIC ([1]; Candida (Issatchenkia) krusei ATCC6258 - reference strain) is on record?
A: Its MIC is 4.

Q: What about the MIC ([1]; F05 Candida (Issatchenkia) krusei ATCC 6258 reference strain, repeat results (Table 2), RPMI 1640) of the same compound?
A: Its MIC is 8.

Q: What about the MIC ([2]; Candida albicans ATCC24433 - reference strain) of the same compound?
A: The MIC was 2.

Q: And the MIC ([2]; Candida albicans ATCC90028 - reference strain)?
A: Its MIC is 2.

Q: And the MIC ([3]; Candida parapsilosis ATCC 22019, RPMI 1640 (Table 2))?
A: The MIC was 4.

Q: What about the MIC ([3]; Candida parapsilosis ATCC90018 - reference strain) of the same compound?
A: The MIC was 4.

Q: And the MIC [4]?
A: The MIC was 2.

Q: And the MIC [5]?
A: The MIC was 4.

Q: And the MIC [6]?
A: The MIC was 4.

Q: What about the MIC [7] of the same compound?
A: Its MIC is 8.

Q: And the MIC [8]?
A: The MIC was 16.

Q: What about the MIC [9] of the same compound?
A: Its MIC is 8.

Q: What about the MIC [10] of the same compound?
A: The MIC was 64.

Q: What about the MIC ([11]; Corynebacterium jeikeium - antibiotic-susceptible clinical isolate) of the same compound?
A: Its MIC is 32.

Q: And the MIC ([11]; Corynebacterium jeikeium - multi-drug resistant clinical isolate)?
A: The MIC was 32.

Q: And the MIC ([12]; Enterococcus faecium vancomycin-resistant (VanA) clinical isolate)?
A: Its MIC is 16.

Q: And the MIC ([12]; Enterococcus faecium vancomycin-resistant (VanB) clinical isolate)?
A: The MIC was 8.

Q: And the MIC ([12]; Enterococcus faecium vancomycin-susceptible clinical isolate)?
A: Its MIC is 8.

Q: And the MIC [13]?
A: The MIC was 4.

Q: And the MIC [14]?
A: Its MIC is 4.

Q: And the MIC ([15]; EMRSA1 Staphylococcus aureus (MRSA) - SSCmec type 3)?
A: Its MIC is 8.

Q: What about the MIC ([15]; EMRSA3 Staphylococcus aureus (MRSA) - SSCmec type 1) of the same compound?
A: The MIC was 4.

Q: What about the MIC ([15]; EMRSA15 Staphylococcus aureus (MRSA) - SSCmec type 4) of the same compound?
A: The MIC was 4.

Q: And the MIC ([15]; EMRSA16 Staphylococcus aureus (MRSA) - SSCmec type 2)?
A: Its MIC is 4.

Q: And the MIC ([15]; GP01 Staphylococcus aureus ATCC 29213 control strain, repeat results (Table 2), Fresh MHB)?
A: The MIC was 4.

Q: And the MIC ([15]; GP01 Staphylococcus aureus ATCC 29213 control strain, repeat results (Table 2), Frozen MHB)?
A: Its MIC is 8 and 4.

Q: What about the MIC ([15]; HT2001254 Staphylococcus aureus (MRSA) - PVL positive) of the same compound?
A: The MIC was 4.

Q: What about the MIC ([15]; MU50 Staphylococcus aureus (MRSA) - VISA type strain) of the same compound?
A: Its MIC is 4.

Q: And the MIC ([15]; Staphylococcus aureus - methicillin-resistant clinical isolate)?
A: The MIC was 4.

Q: What about the MIC ([15]; Staphylococcus aureus - multi-drug-resistant clinical isolate) of the same compound?
A: The MIC was 8.

Q: And the MIC ([15]; Staphylococcus aureus - teicoplanin-intermediate clinical isolate)?
A: Its MIC is 4.

Q: And the MIC ([15]; Staphylococcus aureus ATCC 25923 - antibiotic-susceptible control)?
A: The MIC was 4.

Q: What about the MIC ([15]; Staphylococcus aureus ATCC 29213 - antibiotic-susceptible control (Table 1)) of the same compound?
A: The MIC was 4.

Q: What about the MIC ([15]; Staphylococcus aureus ATCC 43300 - methicillin-resistant control strain) of the same compound?
A: Its MIC is 4.

Q: What about the MIC [16] of the same compound?
A: The MIC was “≧128”.

Q: What about the MIC [17] of the same compound?
A: Its MIC is 64.

Q: And the half-life at 0.1 mg/ml [18]?
A: The half-life at 0.1 mg/ml was over 24 h.
